Data on 21 compounds can be found in patent US20080182859A1 (Curis, Inc., priority 2006, published 2008).

The subject of assay [1] is C57BL/6 male mice. The assay can be described thus: DHT-induced alopecia (mouse model of male pattern baldness). In kind it is in vivo. Conditions: C57BL/6 male mice with subcutaneous DHT pellet (2.5 mg 21 day), dosed topically once, visually graded for hair regrowth. How it is done: (§1) A mouse model of male pattern baldness is used to investigate the effectiveness of the present compounds for growing hair. Agonists for the sonic hedgehog pathway that act by binding and activating Smoothened were tested in a formulation of 50:30:20 PG:EtOH:water or 5:95 DMSO:acetone vehicle. C57BL/6 male mice (48-52 days old on arrival) from Charles River Labs were used on the study. The mice were housed and cared for according to established procedures. Food and water were ad libitum. On Day 0, the mice were shaved on their lower back, an area of ˜1.5 inches x ˜2 inches with Wahl clippers using a surgical blade. On day −3, the mice were anesthetized with isoflurane, their back was rinsed with a pad of 70% ethanol, a placebo pellet or a DHT pellet (2.5 mg 21 day pellet) were implanted subcutaneously between the shoulder blades with a 10 gauge trochar. DHT pellet transplantation results in maintenance of existing hair follicles in the resting (telogen) phase. The hole was stapled with a sterile autoclip and the mice were returned to their cage after awaking. The mice were dosed topically once and visually graded daily, except weekends, for melanogenesis and hair regrowth of fur in the dosed area (Table 4).
In the absence of treatment with the present compounds, the follicles remain in telogen rather than following the normal time course of the mouse hair cycle.

The test system of assay [2] is C57BL/6 male mice. Kind of assay: C57BL/6 hair growth after topical dosing. In kind it is in vivo, mouse. Conditions: shaved lower back, dosed topically once, visually graded for melanogenesis and hair regrowth. Here is the method:
as §1

The test system of assay [3] is sonic hedgehog pathway. The assay can be described thus: Human hedgehog reporter assay Daoy-GliLuc (DGL). In kind it is cell-based. Conditions: Daoy human medulloblastoma cells, Gli-luciferase reporter; read-out: Daoy Avg. EC50. The method in brief: (§2)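 Reporter cells stably selected after gli-luciferase plasmid transfection; test article dosed over 11 points (1:3). Read as luminescence after 24 h treatment in 0.5% serum; activity >20% AMAX versus plate controls deemed active.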

In assay [4] the test system is sonic hedgehog pathway. Kind of assay: Human hedgehog reporter assay HEPM-GliLuc (HGL). It is filed as cell-based. Conditions: HepM human embryonic palatal mesenchymal cells, Gli-luciferase reporter. The method in brief: as §2
The subject of assay [5] is sonic hedgehog pathway. Kind of assay: Hedgehog pathway Gli-luciferase reporter assay, S12 cells. Conditions: S12 mouse embryonic mesenchymal cells, read-out: S12 Avg. EC50. In kind it is cell-based. The method in brief: as §2
For assay [6], the system named is sonic hedgehog pathway. Kind of assay: Hedgehog pathway Gli-luciferase reporter assay, TM3 cells. It is filed as cell-based. Conditions: TM3 mouse Leydig cells. The method in brief: as §2

Where a name gives a salt, the structure may show the parent alone.

`CN[C@H]1CC[C@H](N(Cc2cc(-c3ccccc3)ccc2OC)C(=O)c2sc3ccccc3c2Cl)CC1`: the “Androgenetic Alopecia” value with C57BL/6 male mice [1] is reported as “yes”. Besides, in the assay on C57BL/6 male mice [2], the “C57BL/6 Hair Growth” value was “yes”.

Take `CN[C@H]1CC[C@H](N(Cc2cc(-c3cc(C)nc(C)c3)ccc2OC)C(=O)c2sc3ccccc3c2Cl)CC1`: the “Androgenetic Alopecia” value in the assay on C57BL/6 male mice [1] was “yes”. The “C57BL/6 Hair Growth” value in the assay with C57BL/6 male mice [2] was “yes”.

For the compound `CN[C@H]1CC[C@H](N(Cc2cc(-c3ccc(C(N)=O)cc3)ccc2OC)C(=O)c2sc3c(F)ccc(F)c3c2Cl)CC1`, the “Androgenetic Alopecia” value in the assay on C57BL/6 male mice [1] is on record as “yes”. Also, the “C57BL/6 Hair Growth” value with C57BL/6 male mice [2] is given as “yes”.

As for `CN[C@H]1CC[C@H](N(Cc2cc(-c3ccnc(C)c3)ccc2OC)C(=O)c2sc3ccccc3c2Cl)CC1`, in the assay with C57BL/6 male mice [1], the “Androgenetic Alopecia” value is “yes”. Besides, the “C57BL/6 Hair Growth” value with C57BL/6 male mice [2] is reported as “yes”.

Regarding `CN[C@H]1CC[C@H](N(Cc2cc(-c3ccc(N)nc3)ccc2OC)C(=O)c2sc3cccc(F)c3c2Cl)CC1`, the “Androgenetic Alopecia” value in the assay on C57BL/6 male mice [1] was “yes”. The “C57BL/6 Hair Growth” value with C57BL/6 male mice [2] was “yes”.

Regarding `CN[C@H]1CC[C@H](N(Cc2cc(-c3ccc(S(C)(=O)=O)cc3)ccc2OC)C(=O)c2sc3ccccc3c2Cl)CC1`, in the assay on C57BL/6 male mice [1], the “Androgenetic Alopecia” value was “yes”. Further, the “C57BL/6 Hair Growth” value in the assay on C57BL/6 male mice [2] is given as “yes”.

`CCOc1ccc(-c2ccc(C)nc2)cc1CN(C(=O)c1sc2ccccc2c1Cl)[C@H]1CC[C@H](NC)CC1`: the “C57BL/6 Hair Growth” value with C57BL/6 male mice [2] is reported as “yes”.

As for `CN[C@H]1CC[C@H](N(Cc2cc(-c3ccnc(C(=O)N(C)C)c3)ccc2OC)C(=O)c2sc3c(F)ccc(F)c3c2Cl)CC1`, in the assay with C57BL/6 male mice [1], the “Androgenetic Alopecia” value is given as “yes”. Moreover, the “C57BL/6 Hair Growth” value with C57BL/6 male mice [2] was “yes”.

Regarding `CNC1CCC(N(Cc2cc(-c3ccncc3)ccc2OC)C(=O)c2sc3ccccc3c2Cl)CC1` (stereo not drawn), the “Androgenetic Alopecia” value with C57BL/6 male mice [1] is “yes”. Also, the “C57BL/6 Hair Growth” value in the assay with C57BL/6 male mice [2] is listed as “yes”.

Regarding `CN[C@H]1CC[C@H](N(Cc2cc(-c3ccc(NS(C)(=O)=O)nc3)ccc2OC)C(=O)c2sc3c(F)ccc(F)c3c2Cl)CC1`, in the assay with C57BL/6 male mice [2], the “C57BL/6 Hair Growth” value was “yes”.

As to `CCOc1ccc(-c2ccc(C#N)cc2)cc1CN(C(=O)c1sc2ccccc2c1Cl)[C@H]1CC[C@H](NC)CC1`, in the assay on C57BL/6 male mice [2], the “C57BL/6 Hair Growth” value was “yes”.

Regarding `CN[C@H]1CC[C@H](N(Cc2cc(-c3ccnc(C(=O)O)c3)ccc2OC)C(=O)c2sc3c(F)ccc(F)c3c2Cl)CC1`, the “C57BL/6 Hair Growth” value in the assay with C57BL/6 male mice [2] is on record as “no”.

Take `CN[C@H]1CC[C@@H](N(Cc2cc(-c3ccc(C(N)=O)cc3)ccc2OC)C(=O)c2sc3cccc(F)c3c2Cl)CC1` [Compound 346, 3-Chloro-4-fluoro-benzo[b]thiophene-2-carboxylic acid (4′-carbamoyl-4-methoxy-biphenyl-3-ylmethyl)-(4-methylamino-cyclohexyl)-amide hydrochloride]: the EC50 in the assay on sonic hedgehog pathway [3], in the assay on sonic hedgehog pathway [4], with sonic hedgehog pathway [5] and in the assay on sonic hedgehog pathway [6] was under 50 nM in each case.

As for `CN[C@H]1CC[C@@H](N(Cc2cc(-c3ccnc(C)c3)ccc2OC)C(=O)c2sc3cccc(F)c3c2Cl)CC1` [Compound 348, 3-Chloro-4-fluoro-benzo[b]thiophene-2-carboxylic acid [2-methoxy-5-(2-methyl-pyridin-4-yl)-benzyl]-(4-methylamino-cyclohexyl)-amide bis(trifluoroacetate)], the EC50 with sonic hedgehog pathway [3], with sonic hedgehog pathway [4], in the assay with sonic hedgehog pathway [5] and with sonic hedgehog pathway [6] was under 50 nM in each case.

Regarding `CNc1cc(-c2ccc(OC)c(CN(C(=O)c3sc4c(F)ccc(F)c4c3Cl)[C@H]3CC[C@@H](NC)CC3)c2)ccn1` [Compound 357, 3-Chloro-4,7-difluoro-benzo[b]thiophene-2-carboxylic acid [2-methoxy-5-(2-methylamino-pyridin-4-yl)-benzyl]-(4-methylamino-cyclohexyl)-amide bis(trifluoroacetate)], the EC50 in the assay with sonic hedgehog pathway [3], in the assay with sonic hedgehog pathway [4], in the assay on sonic hedgehog pathway [5] and in the assay with sonic hedgehog pathway [6] was under 50 nM each time.

As to `CN[C@H]1CC[C@@H](N(Cc2cc(-c3ccncc3)ccc2OC)C(=O)c2sc3cccc(F)c3c2Cl)CC1` [Compound 359, 3-Chloro-4-fluoro-benzo[b]thiophene-2-carboxylic acid (2-methoxy-5-pyridin-4-yl-benzyl)-(4-methylamino-cyclohexyl)-amide dihydrochloride], the 50% effective concentration (EC50) with sonic hedgehog pathway [3], in the assay on sonic hedgehog pathway [4], in the assay with sonic hedgehog pathway [5] and with sonic hedgehog pathway [6] was under 50 nM throughout.

As to `CN[C@H]1CC[C@@H](N(Cc2cc(-c3cccnc3)ccc2OC)C(=O)c2sc3c(F)ccc(F)c3c2Cl)CC1` [Compound 361, 3-Chloro-4,7-difluoro-benzo[b]thiophene-2-carboxylic acid (2-methoxy-5-pyridin-3-yl-benzyl)-(4-methylamino-cyclohexyl)-amide dihydrochloride], the EC50 with sonic hedgehog pathway [3], in the assay with sonic hedgehog pathway [4], with sonic hedgehog pathway [5] and with sonic hedgehog pathway [6] was under 50 nM each time.

`CN[C@H]1CC[C@@H](N(Cc2cc(-c3ccccn3)ccc2OC)C(=O)c2sc3c(F)ccc(F)c3c2Cl)CC1` [Compound 367, 3-Chloro-4,7-difluoro-benzo[b]thiophene-2-carboxylic acid (2-methoxy-5-pyridin-2-yl-benzyl)-(4-methylamino-cyclohexyl)-amide dihydrochloride]: the EC50 in the assay with sonic hedgehog pathway [3], in the assay on sonic hedgehog pathway [4], with sonic hedgehog pathway [5] and in the assay on sonic hedgehog pathway [6] was under 50 nM in each case.

Turning to `CN[C@H]1CC[C@H](N(Cc2cc(-c3ccnc(C(=O)OC)c3)ccc2OC)C(=O)c2sc3c(F)ccc(F)c3c2Cl)CC1` [Compound R5, Methyl 4-(3-{[(3-chloro-4,7-difluoro-benzo[b]thiophene-2-carbonyl)-(4-methylamino-cyclohexyl)-amino]-methyl}-4-methoxy-phenyl)-pyridine-2-carboxylate], the EC50 with sonic hedgehog pathway [3], with sonic hedgehog pathway [4], in the assay on sonic hedgehog pathway [5] and in the assay with sonic hedgehog pathway [6] was under 50 nM in each case.

`CN[C@H]1CC[C@@H](N(Cc2cc(-c3ccnc(C(=O)N(C)C)c3)ccc2OC)C(=O)c2sc3c(F)ccc(F)c3c2Cl)CC1` [Compound R9, 4-(3-{[(3-Chloro-4,7-difluoro-benzo[b]thiophene-2-carbonyl)-(4-methylamino-cyclohexyl)-amino]-methyl}-4-methoxy-phenyl)-pyridine-2-carboxylic acid dimethylamide dihydrochloride]: the EC50 with sonic hedgehog pathway [3], with sonic hedgehog pathway [4], in the assay on sonic hedgehog pathway [5] and with sonic hedgehog pathway [6] was under 50 nM in each case.

With `CN[C@H]1CC[C@H](N(Cc2cc(-c3ccnc(C(=O)OC)c3)ccc2OC)C(=O)c2sc3c(F)ccc(F)c3c2Cl)CC1` [drawing 714], the “Androgenetic Alopecia” value in the assay with C57BL/6 male mice [1] was “yes”. Besides, in the assay on C57BL/6 male mice [2], the “C57BL/6 Hair Growth” value is given as “yes”.
